Laboratory results from patent US9663525B2, “Pyrazolopyrimidinyl inhibitors of ubiquitin-activating enzyme” (Millennium Pharmaceuticals, Inc., priority 2012, dated 2017).
Read-outs that look alike come from different tables or passages of the source.

Legend:
[1] = target: mouse UAE (Mus musculus (Mouse), UniProt Q02053); experiment: Ubiquitin Activating Enzyme (UAE) HTRF assay, mouse UAE
Method: (§1) After incubation for 120 minutes, quantification of the FRET is performed on the Pherostar (BMG).
(§2) For compounds whose values are marked with an asterisk (*), mouse UAE was used. For all other compounds, human UAE was used.

[2] = target: recombinant human UAE (Homo sapiens (Human), UniProt P22314); experiment: Ubiquitin Activating Enzyme (UAE) HTRF assay, human UAE
Sequence of recombinant human UAE (P22314 whole entry): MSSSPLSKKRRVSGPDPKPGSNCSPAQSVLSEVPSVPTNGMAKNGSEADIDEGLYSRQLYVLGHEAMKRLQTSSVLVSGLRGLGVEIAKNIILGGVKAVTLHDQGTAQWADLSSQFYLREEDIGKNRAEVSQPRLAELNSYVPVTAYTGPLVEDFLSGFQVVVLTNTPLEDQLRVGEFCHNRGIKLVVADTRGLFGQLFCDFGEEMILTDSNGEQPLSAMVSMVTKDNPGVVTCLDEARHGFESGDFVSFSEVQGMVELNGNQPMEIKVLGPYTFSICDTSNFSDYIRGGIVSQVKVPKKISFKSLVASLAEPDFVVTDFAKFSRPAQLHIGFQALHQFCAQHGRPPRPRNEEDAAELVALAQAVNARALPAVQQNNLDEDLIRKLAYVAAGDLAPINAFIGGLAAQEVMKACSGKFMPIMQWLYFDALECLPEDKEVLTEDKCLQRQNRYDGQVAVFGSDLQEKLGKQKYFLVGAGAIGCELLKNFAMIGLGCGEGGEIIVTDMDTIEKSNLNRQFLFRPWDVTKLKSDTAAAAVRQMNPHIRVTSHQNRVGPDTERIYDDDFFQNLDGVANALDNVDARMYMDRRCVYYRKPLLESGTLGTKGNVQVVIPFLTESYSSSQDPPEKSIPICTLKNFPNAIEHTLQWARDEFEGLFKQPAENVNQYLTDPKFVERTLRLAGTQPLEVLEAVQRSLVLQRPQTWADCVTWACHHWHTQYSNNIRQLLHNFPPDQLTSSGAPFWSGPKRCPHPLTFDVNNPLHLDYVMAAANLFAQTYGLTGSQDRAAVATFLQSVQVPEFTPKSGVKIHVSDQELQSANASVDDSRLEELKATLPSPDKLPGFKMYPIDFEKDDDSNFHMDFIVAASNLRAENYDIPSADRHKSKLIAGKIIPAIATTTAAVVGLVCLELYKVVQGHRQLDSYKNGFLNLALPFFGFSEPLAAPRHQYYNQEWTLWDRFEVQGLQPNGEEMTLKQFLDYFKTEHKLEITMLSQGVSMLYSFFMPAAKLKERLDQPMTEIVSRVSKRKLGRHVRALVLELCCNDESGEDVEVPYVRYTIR
Method: as §1, §2

[3] = system: leukemia and myeloma cell lines; details: cited from earlier work
[4] = system: mouse acute myeloid leukemia (AML model); details: cited from earlier work

Sequence of mouse UAE (Q02053 whole entry): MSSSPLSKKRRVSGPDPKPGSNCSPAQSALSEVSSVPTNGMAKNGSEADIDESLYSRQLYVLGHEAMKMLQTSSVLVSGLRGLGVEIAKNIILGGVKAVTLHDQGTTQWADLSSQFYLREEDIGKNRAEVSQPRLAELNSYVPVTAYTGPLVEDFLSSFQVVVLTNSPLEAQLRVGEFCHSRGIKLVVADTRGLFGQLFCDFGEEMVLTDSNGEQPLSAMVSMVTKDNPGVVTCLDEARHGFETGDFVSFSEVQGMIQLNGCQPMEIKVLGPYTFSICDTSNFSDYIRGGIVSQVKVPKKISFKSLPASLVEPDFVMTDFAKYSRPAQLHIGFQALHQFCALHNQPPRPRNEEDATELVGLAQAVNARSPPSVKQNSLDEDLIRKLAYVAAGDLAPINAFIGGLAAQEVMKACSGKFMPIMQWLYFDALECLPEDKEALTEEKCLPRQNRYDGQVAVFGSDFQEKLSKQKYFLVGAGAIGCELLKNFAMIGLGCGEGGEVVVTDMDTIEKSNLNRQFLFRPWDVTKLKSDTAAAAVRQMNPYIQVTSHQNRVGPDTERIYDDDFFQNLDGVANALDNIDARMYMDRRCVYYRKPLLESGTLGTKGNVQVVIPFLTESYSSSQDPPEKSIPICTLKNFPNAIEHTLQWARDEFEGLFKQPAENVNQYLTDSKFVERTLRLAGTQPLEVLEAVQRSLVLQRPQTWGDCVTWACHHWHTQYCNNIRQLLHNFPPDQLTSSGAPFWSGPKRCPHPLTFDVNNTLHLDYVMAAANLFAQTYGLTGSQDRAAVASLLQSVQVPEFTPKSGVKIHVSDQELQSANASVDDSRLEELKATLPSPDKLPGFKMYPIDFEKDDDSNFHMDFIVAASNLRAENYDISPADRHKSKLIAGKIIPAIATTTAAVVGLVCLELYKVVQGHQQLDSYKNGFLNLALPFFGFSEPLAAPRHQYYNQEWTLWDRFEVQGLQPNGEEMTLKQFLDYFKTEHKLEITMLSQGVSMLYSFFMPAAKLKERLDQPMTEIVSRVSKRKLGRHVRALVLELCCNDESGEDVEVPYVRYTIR

Compound	IC50 [1] [nM]	IC50 ([2]; human UAE) [nM]	other results
NS(=O)(=O)OC[C@H]1C[C@@H](Nc2ccnc3cc(-c4ccccc4)nn23)[C@H](O)[C@@H]1O (racemic) [Compound I-001, (rac)-((1R,2R,3S,4R)-2,3-dihydroxy-4-(2-phenylpyrazolo[1,5-a]pyrimidin-7-ylamino)cyclopentyl)methyl rel-sulfamate]	10 to 100		
NS(=O)(=O)OC[C@H]1C[C@@H](Nc2ccnc3cc(-c4cccc5ccccc45)nn23)[C@H](O)[C@@H]1O (racemic) [Compound I-002, (rac)-((1R,2R,3S,4R)-2,3-dihydroxy-4-{[2-(1-naphthyl)pyrazolo[1,5-a]-pyrimidin-7-yl]amino}cyclopentyl)methyl rel-sulfamate]	< 10		
NS(=O)(=O)OC[C@H]1C[C@@H](Nc2ccnc3cc(-c4cccc(Cl)c4)nn23)[C@H](O)[C@@H]1O (racemic) [Compound I-005, (rac)-((1R,2R,3S,4R)-4-((2-(3-Chlorophenyl)pyrazolo[1,5-a]pyrimidin-7-yl)amino)-2,3-dihydroxycyclopentyl)methyl rel-sulfamate]	< 10		
NS(=O)(=O)OC[C@H]1C[C@@H](Nc2cc(Cl)nc3cc(-c4ccccn4)nn23)[C@H](O)[C@@H]1O (racemic) [Compound I-011, (rac)-((1R,2R,3S,4R)-4-(5-chloro-2-(pyridin-2-yl)pyrazolo[1,5-a]pyrimidin-7-ylamino)-2,3-dihydroxycyclopentyl)methyl rel-sulfamate]	100 to 1000		
NS(=O)(=O)OC[C@H]1C[C@@H](Nc2ccnc3cc(-c4ccccn4)nn23)[C@H](O)[C@@H]1O (racemic) [Compound I-012, (rac)-[(1R,2R,3S,4R)-2,3-dihydroxy-4-{[2-(pyridin-2-yl)pyrazolo[1,5-a]pyrimidin-7-yl]amino}cyclopentyl]methyl rel-sulfamate]	10 to 100		
NS(=O)(=O)OC[C@H]1C[C@@H](Nc2ccnc3cc(-c4csc5cc(Cl)ccc45)nn23)[C@H](O)[C@@H]1O (racemic) [Compound I-091, (rac)-((1R,2R,3S,4R)-4-(2-(6-chlorobenzo[b]thiophen-3-yl)pyrazolo[1,5-a]pyrimidin-7-ylamino)-2,3-dihydroxycyclopentyl)methyl rel-sulfamate]	< 10		
NS(=O)(=O)OC[C@H]1C[C@@H](Nc2ccnc3cc(-c4cccc5c4oc4ccccc45)nn23)[C@H](O)[C@@H]1O [Compound I-103, (s.e.)-((1R,2R,3S,4R)-4-(2-(dibenzo[b,d]furan-4-yl)pyrazolo[1,5-a]pyrimidin-7-ylamino)-2,3-dihydroxycyclopentyl)methyl sulfamate]		< 10	
COc1ccc2ccccc2c1-c1cc2nccc(N[C@@H]3C[C@H](COS(N)(=O)=O)[C@@H](O)[C@H]3O)n2n1 [Compound I-104, (s.e.)-((1R,2R,3S,4R)-2,3-dihydroxy-4-(2-(2-methoxynaphthalen-1-yl)pyrazolo[1,5-a]pyrimidin-7-ylamino)cyclopentyl)methyl sulfamate]		< 10	
COc1ccc(-c2cc3nccc(N[C@@H]4C[C@H](COS(N)(=O)=O)[C@@H](O)[C@H]4O)n3n2)c2ccccc12 [Compound I-106, (s.e.)-((1R,2R,3S,4R)-2,3-dihydroxy-4-(2-(4-methoxynaphthalen-1-yl)pyrazolo[1,5-a]pyrimidin-7-ylamino)cyclopentyl)methyl sulfamate]		< 10	
CN(C)c1ccc(-c2cc3nccc(N[C@@H]4C[C@H](COS(N)(=O)=O)[C@@H](O)[C@H]4O)n3n2)c2ccccc12 [Compound I-107, (s.e.)-((1R,2R,3S,4R)-4-(2-(4-(dimethylamino)naphthalen-1-yl)pyrazolo[1,5-a]pyrimidin-7-ylamino)-2,3-dihydroxycyclopentyl)methyl sulfamate]		< 10	
CC(C)Oc1ccc2ccccc2c1-c1cc2nccc(N[C@@H]3C[C@H](COS(N)(=O)=O)[C@@H](O)[C@H]3O)n2n1 [Compound I-109, (s.e.)-((1R,2R,3S,4R)-2,3-dihydroxy-4-(2-(2-isopropoxynaphthalen-1-yl)pyrazolo[1,5-a]pyrimidin-7-ylamino)cyclopentyl)methyl sulfamate]		< 10	
NS(=O)(=O)OC[C@H]1C[C@@H](Nc2ccnc3cc(-c4c(OC(F)F)ccc5ccccc45)nn23)[C@H](O)[C@@H]1O [Compound I-110, (s.e.)-((1R,2R,3S,4R)-4-(2-(2-(difluoromethoxy)naphthalen-1-yl)pyrazolo[1,5-a]pyrimidin-7-ylamino)-2,3-dihydroxycyclopentyl)methyl sulfamate]		< 10	
NS(=O)(=O)OC[C@H]1C[C@@H](Nc2ccnc3cc(-c4cccc5cc(C(F)F)ccc45)nn23)[C@H](O)[C@@H]1O [Compound I-111, (s.e.)-((1R,2R,3S,4R)-4-(2-(6-(difluoromethyl)naphthalen-1-yl)pyrazolo[1,5-a]pyrimidin-7-ylamino)-2,3-dihydroxycyclopentyl)methyl sulfamate]		< 10	
NS(=O)(=O)OC[C@H]1C[C@@H](Nc2ccnc3cc(-c4ccc(OC(F)F)c5ccccc45)nn23)[C@H](O)[C@@H]1O [Compound I-112, (s.e.)-((1R,2R,3S,4R)-4-(2-(4-(difluoromethoxy)naphthalen-1-yl)pyrazolo[1,5-a]pyrimidin-7-ylamino)-2,3-dihydroxycyclopentyl)methyl sulfamate]		< 10	
NS(=O)(=O)OC[C@H]1C[C@@H](Nc2ccnc3cc(-c4c(Cl)cc(Cl)c5ccccc45)nn23)[C@H](O)[C@@H]1O [Compound I-117, (s.e.)-((1R,2R,3S,4R)-4-(2-(2,4-dichloronaphthalen-1-yl)pyrazolo[1,5-a]pyrimidin-7-ylamino)-2,3-dihydroxycyclopentyl)methyl sulfamate]			IC50 [2]: 10 to 100 nM
COc1ccc(SC(F)(F)F)cc1-c1cc2nccc(N[C@@H]3C[C@H](COS(N)(=O)=O)[C@@H](O)[C@H]3O)n2n1 [Compound I-120, (s.e.)-((1R,2R,3S,4R)-2,3-dihydroxy-4-(2-(2-methoxy-5-(trifluoromethylthio)-phenyl)pyrazolo[1,5-a]pyrimidin-7-ylamino)cyclopentyl)methyl sulfamate]		< 10	
NS(=O)(=O)OC[C@H]1C[C@@H](Nc2c(Cl)cnc3c(Cl)c(-c4cccc(SC(F)(F)F)c4)nn23)[C@H](O)[C@@H]1O [Compound I-124, (s.e.)-{(1R,2R,3S,4R)-4-[(3,6-dichloro-2-{3-[(trifluoromethyl)sulfanyl]phenyl}pyrazolo[1,5-a]pyrimidin-7-yl)amino]-2,3-dihydroxycyclopentyl}methyl sulfamate]			IC50 [2]: 100 to 1000 nM
NS(=O)(=O)OC[C@H]1C[C@@H](Nc2c(Cl)cnc3cc(-c4cccc(SC(F)(F)F)c4)nn23)[C@H](O)[C@@H]1O [Compound I-125, (s.e.)-{(1R,2R,3S,4R)-4-[(6-chloro-2-{3-[(trifluoromethyl)sulfanyl]phenyl}pyrazolo[1,5-a]pyrimidin-7-yl)amino]-2,3-dihydroxycyclopentyl}methyl sulfamate]			IC50 [2]: 100 to 1000 nM
O=C1NN(c2ccc(F)c(Cl)c2)C(=O)/C1=C\c1ccc([N+](=O)[O-])o1 [PYZD-4409]			cell death [3]: induced cell death; anti-tumor activity [4]: demonstrated anti-tumor activity
